Test results taken from patent US10829520B2, “Beta-hairpin peptidomimetics” (POLYPHOR AG, priority 2015, dated 2020).
Where a SMILES comes first, the peptide text is derived from it. Bridges are numbered along the chain shown (N, C = ends). [ ]: non-standard residue; d: D form. Pen = CC(C)(S)[C@H](N)C(=O)O; Tle = CC(C)(C)[C@H](N)C(=O)O; dDab = NCC[C@@H](N)C(=O)O; Dab = NCC[C@H](N)C(=O)O; Dap = NC[C@H](N)C(=O)O; Sar = CNCC(=O)O

Tests used:
Assay type in all cases: cell-based
[1] = system: Acinetobacter baumannii 872842; details: 872842
[2] = system: Acinetobacter baumannii DSM 30008; details: DSM 30008
Procedure, shortened: (§1)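 CLSI broth microdilution; MH-II (cation-adjusted) + 0.002% P-80; ~10^6 CFU/mL inoculum; peptide two-fold serial dilutions; 18-20 h, 35° C; MIC = no visible growth, μg/mL.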

[3] = system: Escherichia coli 926415; details: 926415
[4] = system: Escherichia coli ATCC 25922; details: ATCC 25922
Procedure, shortened: as §1

[5] = system: Klebsiella pneumoniae 968733; details: 968733
[6] = system: Klebsiella pneumoniae SSI #3010; details: SSI #3010
Procedure, shortened: as §1

[7] = system: Pseudomonas aeruginosa ATCC 27853; details: ATCC 27853
Procedure, shortened: as §1

[8] = system: human red blood cells (hRBC); assay: Hemolysis of human red blood cells; details: red cells of human, 1 h, 100 μg/mL
Procedure, shortened: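 Each peptide was tested at a single concentration, 100 μg/mL. Erythrocytes (20% v/v) were incubated 1 h at 37° C. under shaking at 300 rpm, centrifuged, and released hemoglobin measured at OD540. Controls were PBS containing 0.001% acetic acid (0%) and Triton X-100 (100%).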

| SMILES | Acinetobacter baumannii 872842 MIC [1] [µg/mL] | Acinetobacter baumannii DSM 30008 MIC [2] [µg/mL] | Escherichia coli 926415 MIC [3] [µg/mL] | Escherichia coli ATCC 25922 MIC [4] [µg/mL] | Klebsiella pneumoniae 968733 MIC [5] [µg/mL] | Klebsiella pneumoniae SSI #3010 MIC [6] [µg/mL] | Pseudomonas aeruginosa ATCC 27853 MIC [7] [µg/mL] | Hemolysis at 100 μg/mL [8] [%] |
| --- | --- | --- | --- | --- | --- | --- | --- | --- |
| CC(C)C[C@@H]1NC(=O)[C@H](CO)NC(=O)[C@H](Cc2ccc(O)cc2)NC(=O)[C@@H]2CCCN2C(=O)[C@H]2CCCN2C(=O)[C@H](C(C)C)NC(=O)[C@H](C)NC(=O)[C@H](C(C)C)NC(=O)[C@@H](NC(=O)[C@@H](N)C(C)C)CSSC[C@@H](C(=O)NCC(=O)N[C@@H](CCN)C(=O)N[C@H](C(=O)N[C@@H](CCN)C(=O)N[C@H]2CCNC(=O)[C@H]([C@@H](C)O)NC(=O)[C@H](CCN)NC(=O)[C@H](CCN)NC(=O)[C@H](CC(C)C)NC(=O)[C@@H](CC(C)C)NC(=O)[C@H](CCN)NC2=O)[C@@H](C)O)NC1=O [Ex. 155] (H-VCVAV[dP]PYSLCG[Dab]T[Dab][Dab][Dab][dL]L[Dab][Dab]T; disulfide 2-11; lactam 16-C) | 0.0625 | 0.03125 | 0.25 | 0.0625 | 0.5 | 0.0625 | 1 | <1 |
| CC(C)C[C@@H]1NC(=O)[C@H](CO)NC(=O)[C@H](Cc2ccc(O)cc2)NC(=O)[C@@H]2CCCN2C(=O)[C@H]2CCCN2C(=O)[C@H](Cc2c[nH]cn2)NC(=O)[C@H](C)NC(=O)[C@H](C(C)C)NC(=O)[C@@H](NC(=O)[C@@H](N)CC(C)C)CSSC[C@@H](C(=O)NCC(=O)N[C@@H](CCN)C(=O)N[C@H](C(=O)N[C@@H](CCN)C(=O)N[C@H]2CCNC(=O)[C@H]([C@@H](C)O)NC(=O)[C@H](CCN)NC(=O)[C@H](CCN)NC(=O)[C@H](CC(C)C)NC(=O)[C@@H](CC(C)C)NC(=O)[C@H](CCN)NC2=O)[C@@H](C)O)NC1=O [Ex. 156] (H-LCVAH[dP]PYSLCG[Dab]T[Dab][Dab][Dab][dL]L[Dab][Dab]T; disulfide 2-11; lactam 16-C) | 0.0625 | 0.125 | 1 | 0.125 | 0.5 | 0.125 | 0.25 | <1 |
| CC(C)C[C@@H]1NC(=O)[C@@H](CC(C)C)NC(=O)[C@H](CCN)NC(=O)[C@@H](NC(=O)[C@H](CCN)NC(=O)[C@@H](NC(=O)[C@H](CCN)NC(=O)CNC(=O)[C@@H]2CSSC[C@H](NC(=O)[C@@H](N)CC(C)C)C(=O)N[C@@H](C(C)C)C(=O)N[C@@H](C)C(=O)N[C@@H](Cc3ccc(O)cc3)C(=O)N[C@H](CCN)C(=O)N3CCC[C@H]3C(=O)N[C@@H](CC(C)C)C(=O)N[C@@H](CO)C(=O)N[C@@H](Cc3ccc(O)cc3)C(=O)N2)[C@@H](C)O)CCNC(=O)[C@H]([C@@H](C)O)NC(=O)[C@H](CCN)NC(=O)[C@H](CCN)NC1=O [Ex. 157] (H-LCVAY[dDab]PLSYCG[Dab]T[Dab][Dab][Dab][dL]L[Dab][Dab]T; disulfide 2-11; lactam 16-C) | 0.03125 | 0.0625 | 0.125 | 0.0625 | 1 | 0.125 | 0.5 | <1 |
| CC(C)C[C@@H]1NC(=O)[C@H](CO)NC(=O)[C@H](Cc2ccc(O)cc2)NC(=O)[C@@H]2CCCN2C(=O)[C@H]2CCCN2C(=O)[C@H]([C@@H](C)O)NC(=O)[C@H](C)NC(=O)[C@H](Cc2ccc(O)cc2)NC(=O)[C@@H](NC(=O)[C@@H](N)CC(C)C)CSSC[C@@H](C(=O)NCC(=O)N[C@@H](CCN)C(=O)N[C@H](C(=O)N[C@@H](CCN)C(=O)N[C@H]2CCNC(=O)[C@H]([C@@H](C)O)NC(=O)[C@H](CCN)NC(=O)[C@H](CCN)NC(=O)[C@H](CC(C)C)NC(=O)[C@@H](CC(C)C)NC(=O)[C@H](CCN)NC2=O)[C@@H](C)O)NC1=O [Ex. 158] (H-LCYAT[dP]PYSLCG[Dab]T[Dab][Dab][Dab][dL]L[Dab][Dab]T; disulfide 2-11; lactam 16-C) | 0.25 | 0.25 | 4 | 0.125 | 8 | 0.125 | 0.5 | <1 |
| CC(C)C[C@@H]1NC(=O)[C@@H](CC(C)C)NC(=O)[C@H](CCN)NC(=O)[C@@H](NC(=O)[C@H](CCN)NC(=O)[C@@H](NC(=O)[C@H](CCN)NC(=O)CN(C)C(=O)[C@@H]2CSSC[C@H](NC(=O)[C@@H](N)CC(C)C)C(=O)N[C@@H](C(C)C)C(=O)N[C@@H](CO)C(=O)N[C@@H](CO)C(=O)N3CCC[C@@H]3C(=O)N3CCC[C@H]3C(=O)N[C@@H](CC(C)C)C(=O)N[C@@H](CN)C(=O)N[C@@H](Cc3ccc(O)cc3)C(=O)N2)[C@@H](C)O)CCNC(=O)[C@H]([C@@H](C)O)NC(=O)[C@H](CCN)NC(=O)[C@H](CCN)NC1=O [Ex. 159] (H-LCVSS[dP]PL[Dap]YC[Sar][Dab]T[Dab][Dab][Dab][dL]L[Dab][Dab]T; disulfide 2-11; lactam 16-C) | 0.25 | 0.5 | 2 | 0.5 | 8 | 1 | 2 | <1 |
| CC(=O)N[C@@H](Cc1c[nH]c2ccccc12)C(=O)N[C@@H](CCN)C(=O)N[C@H](C(=O)N[C@H]1CSSC[C@@H](C(=O)N[C@@H](Cc2ccc(O)cc2)C(=O)N[C@@H](CCN)C(=O)N[C@@H](CN)C(=O)N[C@@H](CCN)C(=O)N[C@@H](CCN)C(=O)N[C@@H](CCN)C(=O)N[C@H]2CCNC(=O)[C@H]([C@@H](C)O)NC(=O)[C@H](CCN)NC(=O)[C@H](CCN)NC(=O)[C@H](CC(C)C)NC(=O)[C@@H](Cc3ccccc3)NC(=O)[C@H](CCN)NC2=O)NC(=O)[C@H](C(C)C)NC(=O)[C@@H]2CCCN2C(=O)[C@@H](Cc2ccc(O)cc2)NC(=O)[C@H]([C@@H](C)O)NC1=O)C(C)(C)C [Ex. 160] (Ac-W[Dab][Tle]CT[dY]PVCY[Dab][Dap][Dab][Dab][Dab][Dab][Dab][dF]L[Dab][Dab]T; disulfide 4-9; lactam 16-C) | 1 | 0.5 | 2 | 0.5 | 4 | 1 | 0.25 | <1 |
| CC(C)C[C@@H]1NC(=O)[C@@H](CC(C)C)NC(=O)[C@H](CCN)NC(=O)[C@@H](NC(=O)[C@H](CCN)NC(=O)[C@@H](NC(=O)[C@H](CCN)NC(=O)CN(C)C(=O)[C@H](CCN)NC(=O)[C@H](Cc2ccc(O)cc2)NC(=O)[C@@H]2CSSC[C@H](NC(=O)[C@@H](NC(=O)[C@H](CCN)NC(=O)[C@@H](N)Cc3c[nH]c4ccccc34)C(C)(C)C)C(=O)N[C@@H](CO)C(=O)N3CCC[C@@H]3C(=O)N3CCC[C@H]3C(=O)N[C@@H](CC(C)C)C(=O)N2)[C@@H](C)O)CCNC(=O)[C@H]([C@@H](C)O)NC(=O)[C@H](CCN)NC(=O)[C@H](CCN)NC1=O [Ex. 161] (H-W[Dab][Tle]CS[dP]PLCY[Dab][Sar][Dab]T[Dab][Dab][Dab][dL]L[Dab][Dab]T; disulfide 4-9; lactam 16-C) | 0.5 | 0.25 | 0.25 | 0.0625 | 2 | 0.125 | 0.5 | <1 |
| CC(C)C[C@@H]1NC(=O)[C@@H](CC(C)C)NC(=O)[C@H](CCN)NC(=O)[C@@H](NC(=O)[C@H](CCN)NC(=O)[C@@H](NC(=O)[C@H](CCN)NC(=O)CNC(=O)[C@H](CCN)NC(=O)[C@H](Cc2ccc(O)cc2)NC(=O)[C@H]2NC(=O)[C@H](CC(C)C)NC(=O)[C@@H]3CCCN3C(=O)[C@H]3CCCN3C(=O)[C@H](CO)NC(=O)[C@@H](NC(=O)[C@@H](NC(=O)[C@H](CCN)NC(=O)[C@@H](N)Cc3c[nH]c4ccccc34)C(C)C)CSSC2(C)C)[C@@H](C)O)CCNC(=O)[C@H]([C@@H](C)O)NC(=O)[C@H](CCN)NC(=O)[C@H](CCN)NC1=O [Ex. 162] (H-W[Dab]VCS[dP]PL[Pen]Y[Dab]G[Dab]T[Dab][Dab][Dab][dL]L[Dab][Dab]T; disulfide 4-9; lactam 16-C) | 0.125 | 0.5 | 0.25 | 0.0625 | 2 | 0.25 | 1 | <1 |
